The values below come from US11345713B2, “Compounds as modulators of TLR2 signaling” (Neuropore Therapies, inc., priority 2018, dated 2022).

Experiment [1] deals with T1, human TLR2 (Pam2CSK4, TLR2/6 agonist) in HEK-Blue hTLR2 cells (Homo sapiens, UniProt O60603).
T1 construct: host or cells: HEK-Blue hTLR2 (HEK-293)
The experiment in a line: HEK-Blue hTLR2 antagonism assay (SEAP reporter) with Pam2CSK4 as agonist. It is filed as cell-based. The settings on record: 2 h compound pre-incubation, approx. 3×EC50 Pam2CSK4, 18 h, SEAP OD 655 nm, background subtracted. The procedure: (§1) Synthetic diacylated lipoprotein (Pam2CSK4, TLR2/6 agonist) and synthetic triacylated lipoprotein (Pam3CSK4, TLR1/2 agonist) were obtained from InvivoGen and were dissolved in endotoxin-free water to a concentration 1 mg/mL, vortexed until complete solubilization, and stored in aliquots at −20° C. Prior to addition to cells, an aliquot of the dissolved ligand was vortexed shortly and then was diluted in medium to 25 ng/mL Pam2CSK4 or 1000 ng/mL Pam3CSK4. The EC50 of the agonists for each assay run was determined by using 3-fold dilutions of each agonist from the following starting concentrations: 5 ng/mL for Pam2CSK4, and 200 ng/mL for Pam3CSK4.
(§2) Test compounds were solubilized fresh to 10-20 mM stocks in DMSO and sonicated for 5-10 minutes in a water bath sonicator. Serial dilutions were prepared in DMSO, and then diluted in medium. The final concentration of DMSO used in the assay was 1%.
(§3) HEK-Blue hTLR2 reporter cells (InvivoGen) are HEK-293 cells stably expressing both the human TLR2 gene and a secreted embryonic alkaline phosphatase (SEAP) reporter construct downstream of NFκB promotor sites. HEK-Blue hTLR2 reporters were cultured according to manufacturer's protocol using Dulbecco's Modified Eagle Medium (DMEM; Gibco) containing 1× GlutaMax (Gibco), 10% heat-inactivated Fetal Bovine Serum (Gibco), Pen-Strep (50 U/mL penicillin, 50 μg/mL streptomycin, Gibco), 100 μg/mL Normocin (InvivoGen), and the selective antibiotic, 1× HEK-Blue Selection (InvivoGen). Quanti-Blue reagent (InvivoGen) for detection and quantification of secreted alkaline phosphatase was dissolved in 100 mL of endotoxin-free water, warmed to 37° C. for 30 minutes and then filtered using a 0.2 μm membrane.
(§4) On day 1, 50 μL of each test compound dilution in duplicates or a vehicle control was added to each well of a 96-well plate followed by addition of 150 μL of HEK-Blue hTLR2 cell suspension (1×10^5 cells/well) and incubated at 37° C./5% CO2 for 2 h. Next, 50 μL of an approximate 3×EC50 concentration of each agonist (Pam2CSK4 or Pam3CSK4) was added to the wells containing test compounds or the vehicle control. The plates were then incubated at 37° C./5% CO2 for 18 h. For each assay run, non-treated HEK-Blue hTLR2 cells were treated with serial dilutions of agonists to determine EC50 values for the respective run.
(§5) On day 2, secreted alkaline phosphatase (SEAP) activity was detected in cell culture supernatants. In brief, 20 μL was collected from each well and transferred to a 96-well plate. Next, 200 μL of Quanti-Blue detection reagent was added to each well. Plates were incubated at room temperature for 15 min and SEAP activity was assessed by spectrophotometer OD reading at 655 nm. […] The activities of the compounds against Pam2CSK4 and Pam3CSK4 are presented as IC50 values for the response from cells treated with agonists with the background signal subtracted.

In experiment [2] the target is T2, human TLR2 (Pam3CSK4, TLR1/2 agonist) in HEK-Blue hTLR2 cells (Homo sapiens, UniProt O60603).
T2 construct: host or cells: HEK-Blue hTLR2 (HEK-293)
Briefly: HEK-Blue hTLR2 antagonism assay (SEAP reporter) with Pam3CSK4 as agonist. It is filed as cell-based. The settings on record: 2 h compound pre-incubation, approx. 3×EC50 Pam3CSK4, 18 h, SEAP OD 655 nm, background subtracted. The procedure:
as §1, §2, §3, §4, §5

T2 sequence (O60603 19-784 limits assumed): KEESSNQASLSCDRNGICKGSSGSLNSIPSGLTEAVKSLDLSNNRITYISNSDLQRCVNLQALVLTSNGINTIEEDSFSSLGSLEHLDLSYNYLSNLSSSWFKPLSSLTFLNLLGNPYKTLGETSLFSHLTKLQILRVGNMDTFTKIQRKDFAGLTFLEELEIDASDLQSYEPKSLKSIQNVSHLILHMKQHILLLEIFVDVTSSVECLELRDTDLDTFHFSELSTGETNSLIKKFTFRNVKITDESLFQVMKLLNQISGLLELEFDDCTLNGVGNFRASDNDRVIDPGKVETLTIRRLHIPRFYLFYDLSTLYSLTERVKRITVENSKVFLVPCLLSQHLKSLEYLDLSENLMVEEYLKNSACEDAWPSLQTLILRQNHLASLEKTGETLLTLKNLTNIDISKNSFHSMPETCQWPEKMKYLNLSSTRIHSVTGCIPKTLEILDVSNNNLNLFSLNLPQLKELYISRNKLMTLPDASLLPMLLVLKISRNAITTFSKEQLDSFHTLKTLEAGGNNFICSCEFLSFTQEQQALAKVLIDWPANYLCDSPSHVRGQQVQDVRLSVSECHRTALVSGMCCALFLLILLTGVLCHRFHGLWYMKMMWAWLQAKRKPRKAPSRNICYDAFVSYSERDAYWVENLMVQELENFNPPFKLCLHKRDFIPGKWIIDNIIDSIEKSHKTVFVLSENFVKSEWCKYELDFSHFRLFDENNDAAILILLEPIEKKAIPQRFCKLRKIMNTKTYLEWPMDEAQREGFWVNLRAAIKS
T1 sequence (O60603 19-784 limits assumed): as above

Regarding `COc1cc(/C=C/c2ccc(-n3cccn3)cc2)cc(C=O)c1O` [compound 56, (E)-5-(4-(1H-pyrazol-1-yl)styryl)-2-hydroxy-3-methoxybenzaldehyde], the half-maximal inhibitory concentration (IC50) in experiment [1] came to 1.8 µM; in experiment [2], 1.7 µM.

As for `CN1CCCc2cc(/C=C/c3cc(F)c(O)c(C=O)c3)ccc21` [compound 62, (E)-3-fluoro-2-hydroxy-5-(2-(1-methyl-1,2,3,4-tetrahydroquinolin-6-yl)vinyl)benzaldehyde], the IC50 was 1.5 µM in experiment [1] and 0.8 µM in experiment [2].

On to `O=Cc1cc(/C=C/c2ccc(N3CCOCC3)cc2)cc(F)c1O` [compound 42, (E)-3-fluoro-2-hydroxy-5-(4-morpholinostyryl)benzaldehyde], for which the IC50 was 3.4 µM in experiment [1] and 4.5 µM in experiment [2].

For `O=Cc1cc(/C=C/c2ccc(OCC3CC3)cc2)cc(F)c1O` [compound 66, (E)-5-(4-(cyclopropylmethoxy)styryl)-3-fluoro-2-hydroxybenzaldehyde], the IC50 turned out to be 0.9 µM in experiment [1] and 0.3 µM in experiment [2].

As to `COc1cc(C=Cc2ccc(Cl)cc2)cc(C=O)c1O` [compound 3, 5-(4-chlorostyryl)-2-hydroxy-3-methoxybenzaldehyde], the concentration for half-maximal inhibition (IC50) in experiment [1] worked out at 4.8 µM; in experiment [2], 3.1 µM.

Turning to `COc1ccc(/C=C/c2cc(C=O)c(O)cc2F)cc1` [compound 22, (E)-4-fluoro-2-hydroxy-5-(4-methoxystyryl)benzaldehyde], the IC50 was determined as 17.8 µM in experiment [1] and 6.3 µM in experiment [2].

For the compound `CCO/N=C/c1cc(/C=C/c2ccc(N3CCCC3)cc2)cc(F)c1O` [compound 89, (E)-3-fluoro-2-hydroxy-5-((E)-4-(pyrrolidin-1-yl)styryl)benzaldehyde O-ethyl oxime], the concentration for half-maximal inhibition (IC50) in experiment [1] came out at 29.5 µM; in experiment [2], 29.6 µM.

`O=Cc1cc(/C=C/c2ccc(N3CCCC3)cc2)cc(F)c1O` [Example 49a, (E)-3-fluoro-2-hydroxy-5-(4-(pyrrolidin-1-yl)styryl)benzaldehyde]: the IC50 in experiment [1] was 0.5 µM; in experiment [2], 0.6 µM.

Regarding `COc1cc(-c2cc3c(s2)CCN(C(=O)C2CC2)C3)cc(/C=C/C(=O)c2ccccc2)c1O` [compound 73, (E)-3-(5-(5-(cyclopropanecarbonyl)-4,5,6,7-tetrahydrothieno[3,2-c]pyridin-2-yl)-2-hydroxy-3-methoxyphenyl)-1-phenylprop-2-en-1-one], the figures for the IC50 in experiment [1] and in experiment [2] were 4.5 µM and 4.8 µM, respectively.

In the case of `O=C1CN(/N=C/c2cc(/C=C/c3ccc(N4CCCC4)cc3)cc(F)c2O)C(=O)N1` [compound 88, 1-(((E)-3-fluoro-2-hydroxy-5-((E)-4-(pyrrolidin-1-yl)styryl)benzylidene)amino)imidazolidine-2,4-dione], the values for the IC50 in experiment [1] and in experiment [2] were 11.2 µM and 7.9 µM, respectively.

For the compound `Oc1c(F)cc(/C=C/c2ccc(N3CCCC3)cc2)cc1/C=N/Nc1ccccc1` [compound 79, 2-fluoro-6-((E)-(2-phenylhydrazono)methyl)-4-((E)-4-(pyrrolidin-1-yl)styryl)phenol], the IC50 is 4.4 µM in experiment [1] and 6 µM in experiment [2].

With `COc1cc(-c2cc3c(s2)CCN(C(=O)OC(C)(C)C)C3)cc(C=O)c1O` [compound 12, tert-butyl 2-(3-formyl-4-hydroxy-5-methoxyphenyl)-6,7-dihydrothieno[3,2-c]pyridine-5(4H)-carboxylate], the results for the 50% inhibitory concentration (IC50) in experiment [1] and in experiment [2] were 1.4 µM and 1.3 µM, respectively.

In the case of `COc1cc(/C=C/c2ccc(N3CCCC3)cc2)cc(C=O)c1O` [compound 48, (E)-2-hydroxy-3-methoxy-5-(4-(pyrrolidin-1-yl)styryl)benzaldehyde], the half-inhibitory concentration (IC50) is 1 µM in experiment [1] and 0.6 µM in experiment [2].

Consider `COc1ccc(/C=C/c2cc(C=O)c(O)c(OC)c2)cc1` [compound 1, (E)-2-hydroxy-3-methoxy-5-(4-methoxystyryl)benzaldehyde], for which the IC50 was 3.2 µM in experiment [1] and 1.7 µM in experiment [2].
